This is an account of results in US6858718B1, “Hydrogen production” (Melis Energy, priority 2001, dated 2005).

The subject of one data set is hydrogenase activity. Briefly: In vivo hydrogenase activity (H2 evolution) of anaerobically adapted cells in the presence of inhibitors of the photosynthetic electron flow. Type of data set: cell-based, Scenedesmus obliquus. To be noted: for Effect on H2 photoproduction / hydrogenase activity (in words): S. obliquus cells after anaerobic adaptation. The method, then: (§1) The in vivo activity in the presence of different inhibitors of the photosynthetic electron flow was determined as described by Happe et al., in: European Journal of Biochemistry, 214, 475-481 (1993). After anaerobic adaptation, algal cells were harvested, diluted in fresh Tris acetate phosphate medium, and transferred to sealed tubes. Inhibitors were added 1 hour before H2 evolving activity was measured. Cells were broken by sonification. […] Ferrodoxin of both C. reinhardtii and S. obliquus was isolated according to the method of Schmitter et al. (Eur. J.l of Biochem., 172, pages 405-412 (1988)).
Hydrogenase activity was determined in intact and broken cells after anaerobic adaptation. […] This rate corresponds to 85% of the oxygen evolution measure with intact Scenedesmus cells.
In S. obliquus, the hydrogen evolution is linked to the photosynthetic electron transport chain through PSI. […] With reference to Table II, after anaerobic adaptation, cells were harvested, diluted in fresh, TAP medium, and incubated with inhibitors as described herein. α-PetF-antibody was raised against spinach ferredoxin. In Table II, DCMU=3-(3,4-dichlorophenyl)-1,1-dimethylurea; DBMIB=2,5-dibromo-3-methyl-6 isopropyl-p-benzochinone; Sulfo-DSPD=sulfodisalicylidinepropanediamin; DCPIP=2,6-dichlorophenolindophenol. The electron transport from PSI to ferredoxin was inhibited using the artificial electron acceptor DCPIP. In this reaction, DCPIP is reduced instead of ferredoxin and electron transfer to hydrogenase is interrupted.

A further data set deals with H2-evolution. The note with it: C. reinhardtii, stated as known; cited from earlier work.
For data set [1], the system named is purified S. obliquus hydrogenase. Put plainly: Electron transfer properties of electron donors measured in vitro with dithionite as reducing reagent. The note with it: for H2-evolving activities: ferredoxin as electron donor, dithionite as reducing reagent. Type of data set: biochemical, Scenedesmus obliquus. Here is the method:
(§2) The in vitro hydrogenase activity was measured by using a Hewlett Packard (HP 5890, Series II) gas chromatograph, equipped with a thermal conductivity detector and a molecular sieve column. Methyl viologen reduced by sodium dithionite was used as an electron donor. 1 unit is defined as the amount of hydrogenase evolving 1 mmol of molecular hydrogen (H2) per minute at 25° C.
as §1
The electron transfer properties of different plant-type ferredoxins were measured in vitro with dithionite as a reducing reagent. […] In this assay, H2-evolving activities of 420, 390 and 350 U/mg protein with S. obliquus, C. reinhardtii and spinach ferredoxin, respectively, were observed. […] In D. desulfuricans, the Fe-hydrogenase has been reported to catalyze both hydrogen production and uptake with low potential multiheme cytochromes such as cytochrome c3.

Data set [2] deals with iron hydrogenase from S. obliquus. Put plainly: Biochemical data of purified iron hydrogenase, hydrogen evolution assay with reduced methyl viologen. The arrangement: species or system Scenedesmus obliquus. Here is the method: as §2
40-liter cultures of Scenedesmus obliquus were grown heterotrophically. After centrifugation (10 min, 5000×g) the pellet we re-suspended in 200 ml TAP medium. The cells were anaerobically adapted by flushing the solution with argon for 1 hour in the dark. All further purification steps were performed in an anaerobic chamber (Coylab, Ann Arbor, Mich., USA). The cells were disrupted in a 50 mM Tris/HCl, buffer pH 8.0, 10 mM sodium dithionite by vortexing 3 min with glass beads. The further purification steps were made as described hereinbelow for the isolation of the Fe-hydrogenase of Chlamydomonas reinhardti. Automated Edman degradation of the N-terminal site of the protein was performed with an Applied Biosystem model 477A sequencer with online analysator model 120 A.
The N-terminal sequence of HydA was determined by Edman degradation.

In data set [3] the test system is iron hydrogenase from C. reinhardtii. Described as above. Also noted: species or system Chlamydomonas reinhardtii. Here is the method:
Hydrogenase activity of C. reinhardtii was determined in vitro with reduced methyl viologen using a gas chromatograph (Hewlett Packard 5890 Å Series II, column: molecular Sieve 5 Å, Mesh 60/80). The assay, containing in a final volume of 2 mL Pipes pH 6.8 (20 mM), Na2S2O4 (20 mM), MV (5 mM), was incubated anaerobically at 25° C. for 20 min. One unit is defined as he amount of hydrogenase evolving 1 μmol H2 per minute.
Cells from a 40-L culture of C. reinhardtii were harvested by ultra filtration through an Amicon Ultrafiltration System DC 10 LA, with a hollow-fiber filter. The pellet was resuspended in 200 mL TAP medium. After anaerobic adaptation by flushing the solution with argon for 1 h in the dark, all steps were performed under strictly anaerobic conditions. The isolated Fe-hyrogenase was chemically cleaved by cyanogen brormide (CNBr). After separation of he CNBr fragments on an SDS polyacrylamide gel, four peptides were blotted onto a poly(vinylidene difluoride) membrane and were sequenced. Automated Edman degradation was performed with an Applied Biosystem model 477 A sequencer with online analysator model 120 A.
To verify that the hydA ORF encodes the Fe-hydrogenase of C. reinhardtii, the enzyme was purified according to Happe and Naber (Eur. J. Biochem. 214,475-481 (1993)). The purified protein was able to evolve hydrogen, when incubated with reduced methyl viologen. After proteolytic digestion with cyanogen bromide, four bands of 4, 8, 9 and 11 kDa were detected after SDSIPAGE separation (data not shown). Two fragments (9 and 11 kDa) were sequenced by Edman degradation. […] The two fragment sequences are identical with he deduced amino-acid sequence of hydA (sequences are shadowed in gray in FIG. 6). The fragment corresponding to the cDNA region between 158 and 1636 bp of hydA was NdeI-BamHI cloned into the expression vector pET9a. The heterologous expressed protein was detected using antibodies raised against the Fe-hydrogenase. Both the purified Fe-hydrogenase of C. reinhardtii and the overexpressed enzyme had the same size (47.5 kDa). […] (ibid) who also detected no H2-production of the recombinant expressed Fe-hydrogenase from Desulfovibrio vulgaris in E. coli cells. An explanation might be the inability of E. coli to assemble the unique active site of the Fe-hydrogenases. It is known that E. coli has only three NiFe-hydrogenases with a different maturation system for the catalytic center.

Data set [4] can be described thus: Hydrogenase activity of lysate of induced E. coli cells expressing S. obliquus hydA. Type of data set: cell-based, Escherichia coli.
The nature of data set [5]: Hydrogenase activity of lysate of induced E. coli cells expressing C. reinhardtii hydA. In kind it is cell-based, Escherichia coli. The note with it: lysate of the induced E. coli cells. Here is the method:
The hydA gene, corresponding to amino acids 57-497, was amplified, confirmed by sequences analysis and cloned into corresponding sites of he pET9a expression vector (Promega). The constructed plasmid was then ransformed into E. coli strain BL21(DE3). After induction with 1 mM isopropyl-thio-β-D-galactoside, the cells were resuspended in lysis buffer. Crude extracts from C. reinhardtii were isolated by harvesting cells after indicated anaerobic adaptation times. The pellet was resuspended in solubilization buffer and incubated with vigorous vortexing at RT for 30 min. The protein extracts from C. reinhardtii and E. coli were separated by 12% SDS/PAGE and blotted onto a poly(vinylidenedifluoride) membrane. Affinity-purified antibodies were diluted 1:200 and used for Western blot analyses.
To verify that the hydA ORF encodes the Fe-hydrogenase of C. reinhardtii, the enzyme was purified according to Happe and Naber (Eur. J. Biochem. 214,475-481 (1993)). […] After proteolytic digestion with cyanogen bromide, four bands of 4, 8, 9 and 11 kDa were detected after SDSIPAGE separation (data not shown). […] The heterologous expressed protein was detected using antibodies raised against the Fe-hydrogenase. […] (ibid) who also detected no H2-production of the recombinant expressed Fe-hydrogenase from Desulfovibrio vulgaris in E. coli cells. […]

Setting [6] is: broken cells, inhibitor 10^−5 M.
Setting [7] is: intact cells, inhibitor 10^−5 M, added 1 hour before measurement.
The mark [8] stands for this setting: broken cells, inhibitor 10^−4 M.
[9] abbreviates: methyl viologen, read-out: KM value (MV).

Entries after “also recorded” stand apart in the source; their conditions may differ. Like-named read-outs stand apart in the source and are kept apart here.

On to `CN(C)C(=O)Nc1ccc(Cl)c(Cl)c1` [DCMU, 3-(3,4-dichlorophenyl)-1,1-dimethylurea], for which the “Effect on H2 photoproduction / hydrogenase activity (in words)” value in the data set on hydrogenase activity is “still able to photoproduce hydrogen; also recorded: not influenced”. Besides, the Hydrogenase activity with hydrogenase activity (setting [6]) came out at 0.11 Units/mg chlorophyll; in the data set with hydrogenase activity (setting [7]) it was 0.10 Units/mg chlorophyll. Besides, the “Effect on H2 photoproduction (in words)” value in the data set with H2-evolution is given as “still able to photoproduce hydrogen”.
For the molecule `NC(=O)C1=CN([C@@H]2O[C@H](COP(=O)(O)OP(=O)(O)OC[C@H]3O[C@@H](n4cnc5c(N)ncnc54)[C@H](OP(=O)(O)O)[C@@H]3O)[C@@H](O)[C@H]2O)C=CC1` [NADPH, reference compound], in data set [1] (in vitro, purified S. obliquus hydrogenase), the “Hydrogen production with other possible electron donors (in words)” value was “No hydrogen production”.
Turning to `[C-]#[O+]` [CO], the “Inhibition of the enzyme (in words)” value in data set [2] and in data set [3] was “strongly inhibited” each time.
Regarding “sulfodisalicylidinepropanediamin [sulfo-DSPD]”, in the data set with hydrogenase activity, the “Effect on H2 photoproduction / hydrogenase activity (in words)” value is on record as “specifically blocked”. For the same molecule, in the data set on hydrogenase activity (S. obliquus, Table II), the “Reduction of hydrogenase activity” value was “up to 30 fold”. The Hydrogenase activity in the data set on hydrogenase activity (setting [8]) is on record as 0.003 Units/mg chlorophyll.
`O=O` [O2]: the “Inhibition of the enzyme (in words)” value in data set [2] was “strongly inhibited”; in data set [2] (listed as oxygen) it was “irreversibly inactivated”; in data set [3], “strongly inhibited”.
In the case of “spinach ferredoxin: plant-type [2Fe-2S] ferredoxin of spinach”, in data set [1], the H2-evolving activities came out at 350 U/mg protein.
Same read-out and setting: in the case of “C. reinhardtii ferredoxin: plant-type [2Fe-2S] ferredoxin isolated from C. reinhardtii” it was 390 U/mg protein.
Regarding `CC1=C(Br)C(=O)C(C(C)C)=C(Br)C1=O` [DBMIB, 2,5-dibromo-3-methyl-6 isopropyl-p-benzochinone], in the data set with hydrogenase activity, the “Effect on H2 photoproduction / hydrogenase activity (in words)” value is given as “inhibition of the H2-production”. Also, the Hydrogenase activity with hydrogenase activity (setting [6]) is reported as 0.006 Units/mg chlorophyll; in the data set on hydrogenase activity (setting [7]), 0.005 Units/mg chlorophyll. Further, the “Effect on H2 photoproduction (in words)” value with H2-evolution is “no H2-evolution”.
`O=C1C(Cl)=CC(=Nc2ccc(O)cc2)C=C1Cl` [DCPIP, 2,6-dichlorophenolindophenol]: the Hydrogenase activity in the data set on hydrogenase activity (setting [8]) was 0.003 Units/mg chlorophyll.

B1: S. obliquus iron hydrogenase: monomeric iron hydrogenase (HydA) of 44.5 kDa from Scenedesmus obliquus, SEQ. ID. NO. 4; recombinant form expressed in E. coli (protein, listed as Scenedesmus obliquus)
chain: MPEWQPGGRYAVSVRPPVNRRAVVAAERRRLVVRAAGPTAECDCPPAPAPKAPHWQQTLDELAKPKEQRKVMIAQIAPAVRVAIAETMGLNPGDVTVGQMVTGLRMLGFDYVFDTLFGADLTIMEEGTELLHRLQDHLEQHPNKEEPLPMFTSCCPGWVAMVEKSNPELIPYLSSCKSPQMMLGAVIKNYFAAEAGAKPEDICNVSVMPCVRKQGEADREWFNTTGAGGANVDHVMTTAELGKIFVERGIKLNDLQETPFDNPVGEGSGGVLFGTTGGVMEAALRTVYEVVTQKPLDRIVFEDVRGLEGIKESTLHLTPGPTSPFKAFAGADGTGITLNIAVANGLGNAKKLIKQLAAGESKYDFIEVMACPGGCIGGGGQPRSADKQILQKRQAAMYDLDERAVIRRSHENPLIGALYEKFLGEPNGHKAHELLHTHYVAGGVPDEK
On to B1, for which the Km (in general, the concentration of substrate that gives half-maximal velocity) in data set [2] (setting [9]) was 800 µM. In data set [2] (purified enzyme), this molecule showed a Specific activity of 700 U/mg protein and a pI value of 5.17. Also, the “Hydrogenase activity of lysate (in words)” value in data set [4] was “no hydrogenase activity”.

B2: C. reinhardtii iron hydrogenase: Fe-hydrogenase HydA from Chlamydomonas reinhardtii, mature polypeptide of 441 amino acids, SEQ. ID. NO. 5 precursor (protein)
chain: AAPAAEAPLSHVQQALAELAKPKDDPTRKHVCVQVAPAVRVAIAETLGLAPGATTPKQLAEGLRRLGFDEVFDTLFGADLTIMEEGSELLHRLTEHLEAHPHSDEPLPMFTSCCPGWIAMLEKSYPDLIPYVSSCKSPQMMLAAMVKSYLAEKKGIAPKDMVMVSIMPCTRKQSEADRDWFCVDADPTLRQLDHVITTVELGNIFKERGINLAELPEGEWDNPMGVGSGAGVLFGTTGGVMEAALRTAYELFTGTPLPRLSLSEVRGMDGIKETNITMVPAPGSKFEELLKHRAAARAEAAAHGTPGPLAWDGGAGFTSEDGRGGITLRVAVANGLGNAKKLITKMQAGEAKYDFVEIMACPAGCVGGGGQPRSTDKAITQKRQAALYNLDEKSTLRRSHENPSIRELYDTYLGEPLGHKAHELLHTHYVAGGVEEKDEKK
As for B2, the Km in data set [3] (ferredoxin, read-out: KM value (ferredoxin)) worked out at 35 µM; in data set [3] (setting [9]), 830 µM. Also, in data set [3] (purified enzyme), the Specific activity is 935 U/mg protein. This molecule also showed a pI value in data set [3] (purified enzyme) of 5.3. Further, the “Hydrogenase activity of lysate (in words)” value in data set [5] was “No hydrogenase activity”.
